The term Km denotes the concentration of substrate that gives half-maximal velocity. In general, kcat refers to the number of substrate molecules converted per active site and unit of time at saturation. By Vmax is commonly meant the rate approached at saturating substrate.

The record followed here is patent publication US5126258A (priority 1988, dated 1992).

One data set relates to 22F5. Put plainly: Hydrolysis of reactant ligands by receptor 22F5. In kind it is biochemical, mouse. As to conditions: pH 8.0; receptor/ligand uM, time h: 17 1/10, 2; 18 2/10, 24; 20 2/10, 0.33; 5 1/5, 0.33; 22 5/10, 3.5; preliminary. How it is done:
(§1) ^1 Preliminary initial hydrolyses shown as the percentage of admixed
(§2) reactant ligand consumed for catalyzed and spontaneous hydrolyses. "--" =
(§3) No hydrolysis observed. "NT" = Not tried. All reactions were carried out
(§4) at pH 8.0 in a 50 mM phosphate buffer unless otherwise noted. Hydrolytic
(§5) percentages were determined by HPLC using a Hitachi model 655A12 liquid
(§6) chromatograph with a C18 Vydac 201TP54 column, except as noted below.
(§7) Mixtures of acetonitrile a nd water containing 0.1 percent trichloroaceti
(§8) acid [28:72-50:50 (v/v)] were used as elutant. Hydrolyses of Compounds 5
(§9) and 20 were assayed using fluorescence data.
(§10) ^2 Concentrations of receptor molecules (Rec.) and reactant ligands
(§11) (Lig.) in micromolar units, presuming a molecular weight of 150,000
(§12) daltons for each receptor molecule.
(§13) ^3 Reactant ligand (Lig.) used as substrate.
(§14) ^4 Time in hours that the reaction was permitted to take place.
(§15) ^5 Spontaneous hydrolytic percentages for the time period indicated.
(§16) ^6 Reaction carried out at pH 7.2 in a 50 mM phosphate buffer.

The next data set concerns 7E5. Put plainly: Hydrolysis of reactant ligands by receptor 7E5. In kind it is biochemical, mouse. The conditions noted are these: pH 8.0; receptor/ligand uM, time h: 17 1/10, 2; 18 2/10, 24; 20 2/10, 0.33; 5 1/5, 0.33; 22 5/10, 3.5; preliminary. How it is done:
as §1, §2, §3, §4, §5, §6, §7, §8, §9, §10, §11, §12, §13, §14, §15, §16

The test system of another data set is 44A2. Put plainly: Hydrolysis of reactant ligands by receptor 44A2. Type of data set: biochemical, mouse. As to conditions: pH 8.0; receptor/ligand uM, time h: 17 1/10, 2; 18 2/10, 24; 20 2/10, 0.33; 5 1/5, 0.33; 22 5/10, 3.5; preliminary. As for the experimental part: as §1, §2, §3, §4, §5, §6, §7, §8, §9, §10, §11, §12, §13, §14, §15, §16
The next data set deals with Monoclonal Receptor 22F5. Put plainly: Kinetics of hydrolysis by receptor 22F5. In kind it is biochemical, mouse. From the text: (§17) Reaction kinetics were studied using three reactant ligands as substrates for monoclonal receptors 37G2 and 22F5. Data from initial rates were consistent with Michaelis-Menten reaction mechanism for a usual enzyme-substrate system. Initial rates were followed using at 271 nm using a U.V.-visible spectorphotometer for Compound 17, and a fluorescence spectrometer for Compounds 5 and 20, using an excitation wavelength of 355 nm and an emission wavelength of 455 nm for both compounds.
Lineweaver-Burke plots for the catalyzed hydrolysis of Compounds 17, 5 and 20 obtained in the presence and absence of Compound 12i as inhibitor were prepared as discussed for FIG. 4. In particular, Compound 17 was present at concentrations of 1-16 uM with inhibitor concentrations of 100 and 300 nanomolar (nM). Compound 5 was present at concentrations of 1-10 uM with inhibitor concentrations of 100 and 200 nM. Compound 20 was present at concentrations of 2-20 uM with inhibitor concentrations of 25 and 100 nM.
*Fluorescence assays using Compounds 20 and 5 were carried out in a
PerkinElmer fluorescence spectrophotometer (moded LS5; Oakbrook, IL) usin
200 nanomolar receptor (based on a molecular weight of 150,000 daltons) i
50 mM phosphate buffer at a pH value of 8.0. The reactant ligand was
dissolved in dioxane and admixed in the amounts discussed above. Two
milliliters of reaction solution were utilized as was a dioxane
concentration of 2 percent by volume. […]

A further data set concerns 13E10. Put plainly: Hydrolysis of reactant ligands by receptor 13E10. As to conditions: pH 8.0; receptor/ligand uM, time h: 17 1/10, 2; 18 2/10, 24; 20 2/10, 0.33; 5 1/5, 0.33; 22 5/10, 3.5; preliminary. In kind it is biochemical, mouse. As for the experimental part: as §1, §2, §3, §4, §5, §6, §7, §8, §9, §10, §11, §12, §13, §14, §15, §16
In a further data set the test system is 1209. The data set can be described thus: Hydrolysis of reactant ligands by receptor 12C9 (column head prints 1209). Type of data set: biochemical, mouse. As to conditions: pH 8.0; receptor/ligand uM, time h: 17 1/10, 2; 18 2/10, 24; 20 2/10, 0.33; 5 1/5, 0.33; 22 5/10, 3.5; preliminary. How it is done:
as §1, §2, §3, §4, §5, §6, §7, §8, §9, §10, §11, §12, §13, §14, §15, §16

Data set [1] has as its system eight monoclonal receptors 21G2, 7E5, 37G2, 13E10, 12C9, 44A2, 17G8 and 22F5. Put plainly: Catalyzed hydrolysis of reactant ligands by the eight QPN1 monoclonal receptors, summary. In kind it is biochemical, mouse. The conditions noted are these: pH 8.0. How it is done: Mice were hyperimmunized with the Compound 13-KLH conjugate over a three to four week time period. Sera were assayed in an ELISA using a Compound 13-BSA conjugate bound to microtiter plate wells as the solid-phase antigen. Cloned hybridomas were also screened using that ELISA assay.
Each of those catalyses could be inhibited by an appropriate analog-ligand. Thus, a relatively high percentage of induced monoclonal receptors was capable of catalyzing an esterolytic reaction. The reason for this relatively high percentage of useful receptors being induced is unknown, but could be due to the presence of phosphonamidate group nitrogen atom, as compared to a phosphonate oxygen atom, or to the quinoline nucleus of the analog-ligand. Those eight catalytic monoclonal receptors and the hybridomas that secrete them are identified by the laboratory designations "QPN1 7E5", "QPN1 12C9", "QPN1 13E10", "QPN1 17G8", "QPN1 21G2", "QPN1 22F5", "QPN1 37G2" and QPN1 44A2. The prefix "QPNI" is sometimes omitted herein when discussing these hybridomas and receptors.
Amide cleavage for Compounds 14 and 15 was assayed by analyzing for the production of free aminoquinaldine or aminonaphthalene by measuring the increase in the azo dye that results from derivatizing the free aminoquinaldine or aminonapthalene with a diazotization reagent.
Catalysis reactions were conducted by preparing a reaction admixture of 100 microliters (ul) total volume containing 5 micromolar (uM) monoclonal antibody, 50-75 uM amide reactant ligand substrate and a buffer described hereinafter. The buffer included in the above admixture varied depending upon the pH utilized as follows: pH 5, 10 […] sodium acetate, 10 mM sodium chloride; pH 7.2, 10 mM sodium phosphate, 0.15 molar (M) sodium chloride; pH 8.0; 50 mM sodium phosphate. The amide-containing substrates screened in this assay were added to the above admixture in 1 ul of a 100-fold concentrated stock solution of dimethyl formamide (DMF). Monoclonal antibody was added to the above admixture from a concentrated stock solution. The resulting admixture was placed into the well of a 96 well flat bottom microtiter plate (Costar, Cambridge, Mass.) and maintained in a moist vapor environment chamber at 23 degrees C. The production of aminoquinaldine or aminonaphthalene was then assayed as described below after 2,3,5, or 6 days.
The aminoquinaldine or aminonapthalene product produced by the catalyzed reaction was measured by first admixing 20 ul of 5M HCl, 80 ul acetone and 10 ul 0.5% (w/v) sodium nitrite to the reaction admixture to form a second admixture and maintaining that second admixture for 3 minutes at room temperature. Thereafter, 10 ul 2.5% (w/v) ammonium sulfamate was added to form a third admixture that was maintained for 2 minutes at room temperature. A still further 10 ul of 0.5% (w/v) N-(1-napthyl)ethylenediamine dihydrochloride was added to form a fourth admixture that was then maintained for 15 minutes at room temperature. Thereafter the resulting azo dye present in the fourth admixture was measured by absorbance spectroscopy at 540 nanometers (nm) for aminoquinaldine using a Model EL 309 Automated Microplate Reader (Bio-Tek Instruments, Winooski, Vt.).

For a further data set, the system named is 17G8. Put plainly: Hydrolysis of reactant ligands by receptor 17G8. In kind it is biochemical, mouse. The conditions noted are these: pH 8.0; receptor/ligand uM, time h: 18 2/10, 24; 20 2/10, 0.33; 5 1/5, 0.33; 22 5/10, 3.5; preliminary. As for the experimental part: as §1, §2, §3, §4, §5, §6, §7, §8, §9, §10, §11, §12, §13, §14, §15, §16
The subject of another data set is 21G2. The data set can be described thus: Hydrolysis of reactant ligands by receptor 21G2. Type of data set: biochemical, mouse. The conditions noted are these: pH 8.0; receptor/ligand uM, time h: 17 1/10, 2; 18 2/10, 24; 20 2/10, 0.33; 5 1/5, 0.33; 22 5/10, 3.5; preliminary. How it is done:
as §1, §2, §3, §4, §5, §6, §7, §8, §9, §10, §11, §12, §13, §14, §15, §16

The next data set has as its system 37G2. Put plainly: Hydrolysis of reactant ligands by receptor 37G2. The conditions noted are these: pH 8.0; receptor/ligand uM, time h: 17 1/10, 2; 18 2/10, 24; 20 2/10, 0.33; 5 1/5, 0.33; 22 5/10, 3.5; preliminary. Type of data set: biochemical, mouse. As for the experimental part:
as §1, §2, §3, §4, §5, §6, §7, §8, §9, §10, §11, §12, §13, §14, §15, §16

The nature of data set [2]: Spontaneous (uncatalyzed, background) hydrolysis. Type of data set: physicochemical. As to conditions: pH 8.0, 50 mM phosphate; time (h): 17 2; 18 24; 20 0.33; 5 0.33; 22 3.5. As for the experimental part:
The practical range of pH for the assay is limited by the rapid spontaneous rate of hydrolysis of an ester Compound 5 above pH 8.0. Initially, the ester was used at a concentration that was about four-fold greater than that of the protein, and the mixture was incubated at pH 7.2 for 10 minutes. Any change in fluorescence above background was noted.
The lack of spectroscopic distinction between such esters and their hydrolysis products recommended a chromatographic analysis of the process. Referring to FIG. 3, a mixture of Compound 7 (5 uM) and the monoclonal antibody from hybridoma P3 6D4 (0.1 uM) in phosphate buffer (50 mM, pH 8.0) was analyzed over time by high performance liquid chromatography (HPLC). The accelerated hydrolysis of the ester was apparent from the decrease of its peak and the concurrent increase in two new peaks that correspond with the expected products. Under these conditions, the ester is completely consumed in 60-80 minutes during which time the background rate accounts for about 12 to 16 percent hydrolysis. The chromatographic profile is the same as that produced by treatment with hog liver esterase.
^c The rate constants were determined spectrophotometrically (at 245
nm) by measuring initial rates at five concentrations of ester.
as §1, §2, §3, §4, §5, §6, §7, §8, §9, §15, §17

As for `CC(=O)Nc1ccc(CC(=O)Oc2ccc3c(C)cc(=O)oc3c2)cc1` [Compound 20], in the data set on 22F5, the “hydrolysis by 22F5” value is recorded as 48 percentage of reactant ligand. Also, the “hydrolysis by 7E5” value in the data set with 7E5 is given as 15 percentage of reactant ligand. The “hydrolysis by 44A2” value in the data set with 44A2 is given as 33 percentage of reactant ligand. For the same compound, the Km in the data set on Monoclonal Receptor 22F5 (50 mM phosphate pH 8.0, 200 nM receptor, 2% dioxane, figure = Km × 10^6) is 5 µM. Moreover, the kcat with Monoclonal Receptor 22F5 (pH 8.0) is 0.023 s⁻¹. Further, in the data set with Monoclonal Receptor 22F5 (pH 8.0, 200 nM receptor, figure = Vmax × 10^9), the Vmax came out at 0.27 µM/min. Also, the “hydrolysis by 13E10” value in the data set with 13E10 is 16 percentage of reactant ligand. Besides, in the data set on 1209, the “hydrolysis by 1209” value is listed as 16 percentage of reactant ligand. The “receptors (of eight) that catalyzed hydrolysis of the compound” value in data set [1] was “Only those same five receptors”. The “hydrolysis by 17G8” value with 17G8 is given as 20 percentage of reactant ligand. Moreover, the “hydrolysis by 21G2” value with 21G2 was 36 percentage of reactant ligand. For the same compound, the “hydrolysis by 37G2” value in the data set with 37G2 was 39 percentage of reactant ligand. Further, the “Spon. (spontaneous hydrolysis)” value in data set [2] was 14 percentage of reactant ligand.
